Measurements: patent US20230028441A1, “NOVEL HETEROARYL-TRIAZOLE COMPOUNDS AS PESTICIDES” (Bayer Aktiengesellschaft, priority 2019, published 2023)

Legend:
Type in all cases: in vivo
[1] = tested on: cattle ticks (Rhipicephalus microplus) strain Parkhurst, SP-resistant; experiment: Rhipicephalus (Boophilus) microplus dip test; conditions: 100 ppm, egg deposition after 7 days
Description: Test animal: cattle ticks (Rhipicephalus microplus) strain Parkhurst, SP-resistant
Solvent: dimethyl sulfoxide
To produce a suitable preparation of active compound, 10 mg of active compound are dissolved in 0.5 mL solvent, and the concentrate is diluted with water to the desired concentration.
This compound solution is pipetted into tubes. 8-10 engorged, adult, female cattle ticks (Rhipicephalus microplus) are placed in perforated tubes. These tubes are immersed in the aqueous compound solution until the ticks are completely moistened. After the liquid has drained off, the ticks are transferred to a filter paper in a plastic tray and stored in a climate chamber.
After 7 days egg deposition of fertile eggs is monitored. Eggs where fertility is not visible are stored in a climate chamber till hatching after about 42 days. An efficacy of 100% means all eggs are infertile; 0% means all eggs are fertile.

[2] = tested on: larvae of the banded cucumber beetle (Diabrotica balteata); experiment: Diabrotica balteata spray test; conditions: 168 h, after 7 days, wheat seeds, read-out: efficacy (seedlings grown up); for pest or weed control at 32 µg/disc, 100 g/ha: 100 g/ha (=32 μg/well); for pest or weed control at 160 µg/disc, 500 g/ha: 500 g/ha (=160 μg/well)
Method in brief: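 Germinated wheat seedlings (5 per well, agar plates) sprayed with compound in acetone/DMF diluted in water with 1000 ppm emulsifier, then infested with 10-20 larvae per unit. Efficacy scored after 7 days as % seedling growth relative to untreated, uninfested control (100% = normal growth, 0% = none).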

[3] = tested on: adult unfed cat fleas (Ctenocephalides felis); experiment: Ctenocephalides felis oral test; conditions: 48 h, 100 ppm in cattle blood, after 2 days
Method in brief: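 About 20 adult unfed Ctenocephalides felis fed through parafilm on cattle blood dosed with compound (DMSO stock diluted in blood), blood chamber at 37°C, fleas at room temperature. Mortality (%) scored after 2 days; 100% means all fleas killed.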

[4] = tested on: adult cat fleas (Ctenocephalides felis); experiment: Ctenocephalides felis in-vitro contact test, adult cat flea; conditions: 5 μg/cm^2 (=500 g/ha), after 48 hours, read-out: efficacy (fleas dead or moribund)
Method in brief: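 Acetone solutions were coated on glass tube walls, 900 ppm giving 5 μg/cm^2. After drying, 5-10 adult fleas per tube were held 48 h at room temperature. Fleas unable to climb away from a 45-50 °C heating plate within 5 min were scored dead or moribund, as % efficacy.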

[5] = tested on: cattle tick larvae (Rhipicephalus microplus), strain Parkhurst, resistant against synthetic pyrethroids; experiment: Rhipicephalus (Boophilus) microplus in-vitro contact test, larval cattle tick; conditions: 5 μg/cm^2 (=500 g/ha), after 48 hours, read-out: efficacy (larvae dead or moribund)
Method in brief: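 Acetone solutions of compound were coated on glass tube walls (900 ppm giving 5 μg/cm^2) and dried. 20–50 pyrethroid-resistant Parkhurst larvae were held per tube at 27° C and 85% relative humidity; after 48 h negative geotaxis scored efficacy as percent larvae dead or moribund.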

[6] = tested on: green peach aphid (Myzus persicae); experiment: Myzus persicae oral test; conditions: 120 h
Method in brief: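 Acetone stock (1 pbw compound/100 pbw solvent) diluted in water; mixed with sugar-supplemented IPL41 medium; parafilm-sealed; mixed aphid population sucks through film; mortality % read at 5 d.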

[7] = tested on: adult engorged female ticks (Rhipicephalus microplus); experiment: Rhipicephalus (Boophilus) microplus injection test; conditions: 168 h, egg deposition after 7 days, read-out: efficacy (infertile eggs); for pest or weed control at 0.004 mg: 4 μg/animal; for pest or weed control at 0.02 mg: 20 μg/animal
Method in brief: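 Compound was dissolved in DMSO at 10 mg per 0.5 mL and diluted with DMSO to the test concentration. Five engorged adult females received a 1 μL abdominal injection and were kept in a climate chamber. After 7 days, fertile egg deposition was scored, with unclear eggs held until hatching at about 42 days; 100% efficacy means all eggs were infertile.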

[8] = tested on: adult brown dog ticks (Rhipicephalus sanguineus); experiment: Rhipicephalus sanguineus in-vitro contact test with adult brown dog ticks; conditions: after 48 hours, read-out: efficacy (ticks dead or moribund); for pest or weed control at 1 µg/cm2, 100 g/ha: 1 μg/cm^2 (=100 g/ha); for pest or weed control at 5 µg/cm2, 500 g/ha: 5 μg/cm^2 (=500 g/ha)
Method in brief: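 Compound in acetone coated onto glass tube inner walls at 900 ppm, giving 5 μg/cm^2. Adult ticks (5-10 per tube) held at room temperature for 48 h, then placed on a 45-50° C. heating plate for up to 5 min. Ticks unable to climb away counted dead or moribund; efficacy given as % dead/moribund.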

[9] = tested on: larvae of the southern green stink bug (Nezara viridula); experiment: Nezara viridula spray test; conditions: in Hordeum vulgare, 96 h
Method in brief: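 Barley plants infested with Nezara viridula larvae were sprayed with compound in acetone/dimethylformamide, diluted in water containing 1000 ppm alkylarylpolyglycol ether emulsifier. Mortality (%) was scored after 4 days; 100% means all stink bugs killed.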

[10] = tested on: fall armyworm larvae (Spodoptera frugiperda); experiment: Spodoptera frugiperda spray test (maize leaf sections); conditions: 168 h
Method in brief: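 Maize leaf sections were sprayed with compound formulated in acetone/DMF and diluted in water containing 1000 ppm emulsifier. Once dry, sections were infested with fall armyworm larvae. Mortality (%) was scored after 7 days.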

[11] = tested on: two spotted spidermite (Tetranychus urticae); experiment: Tetranychus urticae spray test, OP-resistant; conditions: foliar, 144 h, after 6 days, French bean leaf disks
Description: Solvent: 78.0 parts by weight acetone • 1.5 parts by weight dimethylformamide
Emulsifier: alkylarylpolyglycol ether
To produce a suitable preparation of active compound, 1 part by weight of active compound is mixed with the stated amount of solvents and is diluted with water, containing an emulsifier concentration of 1000 ppm, to the desired concentration. Further test concentrations are prepared by dilution with emulsifier containing water.
French bean (Phaseolus vulgaris) leaf disks infected with all instars of the two spotted spidermite (Tetranychus urticae), are sprayed with a preparation of the active ingredient of the desired concentration.
After 6 days mortality in % is determined. 100% means all spider mites have been killed and 0% means none of the spider mites have been killed.

[12] = tested on: caterpillars of the fall army worm (Spodoptera frugiperda); experiment: Spodoptera frugiperda spray test (cotton leaves); conditions: 168 h
Method in brief: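 Cotton leaves sprayed with compound in water/DMF with 1000 ppm alkylaryl polyglycol ether emulsifier, ammonium salt and/or penetration enhancer at 1000 ppm added if necessary, then infested with fall armyworm caterpillars. Mortality in % scored after 7 days; 100% means all caterpillars killed.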

[13] = tested on: green peach aphid (Myzus persicae); experiment: Myzus persicae spray test; conditions: foliar, 120 h, 500 g/ha, after 5 days, Chinese cabbage leaf disks
Method in brief: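 Chinese cabbage leaf disks carrying all instars of Myzus persicae were sprayed with compound. The formulation was acetone/dimethylformamide diluted in water with 1000 ppm alkylarylpolyglycol ether emulsifier. Percent mortality was scored after 5 days, with 100% meaning all aphids killed.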

[14] = tested on: southern root-knot nematode (Meloidogyne incognita); experiment: Meloidogyne incognita test; conditions: 336 h, after 14 days, read-out: nematicidal activity (gall formation)
Description: Solvent: 125.0 parts by weight of acetone
To produce a suitable preparation of active compound, 1 part by weight of active compound is mixed with the stated amount of solvent, and the concentrate is diluted with water to the desired concentration.
Vessels are filled with sand, a solution of the active ingredient, a suspension containing eggs and larvae of the southern root-knot nematode (Meloidogyne incognita) and salad seeds. The salad seeds germinate and the seedlings grow. Galls develop in the roots.
After 14 days the nematicidal activity is determined on the basis of the percentage of gall formation. 100% means no galls were found and 0% means the number of galls found on the roots of the treated plants was equal to that in untreated control plants.

Structure (SMILES)	efficacy (infertile eggs) [1]	pest or weed control at 32 µg/disc, 100 g/ha [2]	mortality at 100 ppm [3]	pest or weed control at 5 µg/cm2 [4]	pest or weed control at 5 µg/cm2 [5]	mortality at 4 ppm [6]	pest or weed control at 0.004 mg [7]	pest or weed control at 1 µg/cm2, 100 g/ha [8]	pest or weed control at 5 µg/cm2, 500 g/ha [8]	mortality at 100 g/ha [9]	mortality at 100 g/ha [10]	mortality at 500 g/ha [11]	pest or weed control at 0.02 mg [7]	pest or weed control at 160 µg/disc, 500 g/ha [2]	mortality at 500 g/ha [9]	mortality at 20 ppm [12]	mortality at 500 g/ha [13]	mortality at 500 g/ha [10]	pest or weed control at 20 ppm [14]
CC(NC(=O)c1cc(Cl)cc(C(F)(F)F)c1)c1nc(N)nn1-c1ncccn1 (racemic) [I-004, N-[1-(5-amino-2-pyrimidin-2-yl-1,2,4-triazol-3-yl)ethyl]-3-chloro-5-(trifluoromethyl)benzamide]	80%	100%	100%	100%	90%	100%	100%	–	–	–	–	–	–	–	–	–	–	–	–
CC(NC(=O)c1cc(C(F)(F)F)cc(C(F)(F)F)c1)c1nc(N(C)C(=O)OC(C)(C)C)nn1-c1ncccn1 (racemic) [I-009, tert-butyl N-[5-[1-[[3,5-bis(trifluoromethyl)benzoyl]amino]ethyl]-1-pyrimidin-2-yl-1,2,4-triazol-3-yl]-N-methyl-carbamate]	80%	100%	100%	90%	100%	100%	100%	80%	100%	100%	100%	–	–	–	–	–	–	–	–
CC(NC(=O)c1cc(Cl)cc(C(F)(F)F)c1)c1nc(NC(=O)OC(C)(C)C)nn1-c1ccc(Cl)cn1 (centres unmarked) [I-003]	–	–	–	–	–	–	80%	–	–	–	–	90%	100%	–	–	–	–	–	–
CC(NC(=O)c1cc(Cl)cc(S(C)(=O)=O)c1)c1nc(NC(=O)C2(Cl)CC2)nn1-c1ccc(Cl)cn1 (centres unmarked) [I-012]	–	100%	100%	–	100%	100%	100%	100%	100%	100%	100%	90%	100%	100%	100%	100%	90%	100%	–
CC(NC(=O)c1cc(Cl)cc(S(C)(=O)=O)c1)c1nc(NC(=O)C2CC2)nn1-c1ccc(Cl)cn1 (centres unmarked) [I-013]	80%	–	100%	–	90%	–	100%	–	–	–	–	–	100%	–	–	100%	–	–	–
CC(NC(=O)c1cc(Cl)cc(C(F)(F)F)c1)c1nc(NC(=O)CC(F)(F)F)nn1-c1ccc(Cl)cn1 (centres unmarked) [I-016]	–	100%	100%	–	100%	–	100%	–	–	–	100%	90%	100%	100%	–	100%	–	100%	–
CC(NC(=O)c1cc(Cl)cc(C(F)(F)F)c1)c1nc([S+](C)[O-])nn1-c1ccc(Cl)cn1 (centres unmarked) [I-064]	–	100%	–	–	–	100%	–	–	–	100%	100%	100%	–	100%	100%	–	–	100%	90%
